Laboratory results from patent publication US20240317714A1, “3-[(1H-PYRAZOL-R-YL)OXY]PYRAZIN-2-AMINE COMPOUNDS AS HPK1 INHIBITOR AND USE THEREOF” (BeiGene, Ltd., priority 2020, published 2024).
pIC50: −log10 of the molar value.

Assays:
[1] = target: HPK1 kinase (aal-346. Life Technologies) (Homo sapiens (Human), UniProt Q92918); assay: HPK Kinase Activity Assay at 1 mM ATP (TR-FRET); format: biochemical; details: HPK1 kinase 40 nM, 0.5 μM STK1 substrate, read-out: Enzymatic activity IC50
[2] = system: pSLP76(S376) level in Jurkat cell line; assay: Cellular pSLP76(S376) HTRF Assay; format: cell-based; details: Homo sapiens, Jurkat, Jurkat cells, 2 h compound treatment, stimulated with 0.05 μg/mL anti-human CD3 (OKT3) for 30 min

Chain of HPK1 kinase (aal-346. Life Technologies) (Q92918 1-346): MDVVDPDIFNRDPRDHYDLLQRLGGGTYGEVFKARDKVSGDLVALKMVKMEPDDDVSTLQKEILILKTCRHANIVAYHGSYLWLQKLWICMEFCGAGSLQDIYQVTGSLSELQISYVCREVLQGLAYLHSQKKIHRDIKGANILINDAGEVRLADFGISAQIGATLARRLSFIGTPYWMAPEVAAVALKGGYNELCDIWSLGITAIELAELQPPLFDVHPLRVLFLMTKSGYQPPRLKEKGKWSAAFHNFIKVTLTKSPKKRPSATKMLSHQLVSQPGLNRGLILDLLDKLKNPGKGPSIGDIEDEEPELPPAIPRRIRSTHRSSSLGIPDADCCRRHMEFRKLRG

pIC50 [1] | pIC50 [2] | Compound
8.24 | 7.21 | COC[C@@H]1COCCN1c1cc(-c2cnc(N)c(Oc3cnn(C4CCN(C)CC4)c3)n2)cc(C2(O)COC2)c1 [Example A76, (R)-3-(3-(5-amino-6-((1-(1-methylpiperidin-4-yl)-1H-pyrazol-4-yl)oxy)pyrazin-2-yl)-5-(3-(methoxymethyl)morpholino)phenyl)oxetan-3-ol]
7.42 | 7.04 | Cc1cc(-c2cnc(N)c(Oc3cnn(C4CCN(C)CC4)c3)n2)cc(C)c1N1CC2(COC2)C1 [Example A77, 5-(3,5-dimethyl-4-(2-oxa-6-azaspiro[3.3]heptan-6-yl)phenyl)-3-((1-(1-methylpiperidin-4-yl)-1H-pyrazol-4-yl)oxy)pyrazin-2-amine]
8.26 | 7.29 | CN1CCC(n2cc(Oc3nc(-c4cc(N5CC6(COC6)C5)cc(C5(O)COC5)c4)cnc3N)cn2)CC1 [Example A78, 3-(3-(5-amino-6-((1-(1-methylpiperidin-4-yl)-1H-pyrazol-4-yl)oxy)pyrazin-2-yl)-5-(2-oxa-6-azaspiro[3.3]heptan-6-yl)phenyl)oxetan-3-ol]
7.92 | 7.15 | CN1CCC(n2cc(Oc3nc(-c4cc(C5CCOCC5)cc(C5(O)COC5)c4)cnc3N)cn2)CC1 [Example A79, 3-(3-(5-amino-6-((1-(1-methylpiperidin-4-yl)-1H-pyrazol-4-yl)oxy)pyrazin-2-yl)-5-(tetrahydro-2H-pyran-4-yl)phenyl)oxetan-3-ol]
7.54 | 6.71 | C[C@@H]1COCCN1c1cc(-c2cnc(N)c(Oc3cnn(C4CCN(C)CC4)c3)n2)cc([C@@]2(O)CCOC2)c1 [Example A80A, (S)-3-(3-(5-amino-6-((1-(1-methylpiperidin-4-yl)-1H-pyrazol-4-yl)oxy)pyrazin-2-yl)-5-((R)-3-methylmorpholino)phenyl)tetrahydrofuran-3-ol]
8.27 | 7.32 | C[C@@H]1COCCN1c1cc(-c2cnc(N)c(Oc3cnn(C4CCN(C)CC4)c3)n2)cc([C@]2(O)CCOC2)c1 [Example A80B, (R)-3-(3-(5-amino-6-((1-(1-methylpiperidin-4-yl)-1H-pyrazol-4-yl)oxy)pyrazin-2-yl)-5-((R)-3-methylmorpholino)phenyl)tetrahydrofuran-3-ol]
7.43 | 7.14 | CC#Cc1c(C)cc(-c2cnc(N)c(Oc3cnn(C4CCN(C)CC4)c3)n2)cc1C1(O)COC1 [Example A81, 3-(5-(5-amino-6-((1-(1-methylpiperidin-4-yl)-1H-pyrazol-4-yl)oxy)pyrazin-2-yl)-3-methyl-2-(prop-1-yn-1-yl)phenyl)oxetan-3-ol]
7.43 | 6.90 | COCc1cc(-c2cnc(N)c(Oc3cnn(C4CCN(C)CC4)c3)n2)cc(C2(O)COC2)c1 [Example A82, 3-(3-(5-amino-6-((1-(1-methylpiperidin-4-yl)-1H-pyrazol-4-yl)oxy)pyrazin-2-yl)-5-(methoxymethyl)phenyl)oxetan-3-ol]
7.77 | 6.98 | Cc1cc(-c2cnc(N)c(Oc3cnn(C4CCN(C)CC4)c3)n2)cc(C2(O)CCOC2)c1N1CC2(COC2)C1 (stereo not drawn) [Example A83, 3-(5-(5-amino-6-((1-(1-methylpiperidin-4-yl)-1H-pyrazol-4-yl)oxy)pyrazin-2-yl)-3-methyl-2-(2-oxa-6-azaspiro[3.3]heptan-6-yl)phenyl)tetrahydrofuran-3-ol]
7.24 | 7.08 | Cc1cc(-c2cnc(N)c(Oc3cnn(C4CCN(C)CC4)c3)n2)cc(C2(O)COC2)c1Cl [Example A84, 3-(5-(5-amino-6-((1-(1-methylpiperidin-4-yl)-1H-pyrazol-4-yl)oxy)pyrazin-2-yl)-2-chloro-3-methylphenyl)oxetan-3-ol]
8.43 | 7.55 | CN1CCC(n2cc(Oc3nc(-c4cc(N5CCC[C@H]5CO)cc(C5(O)COC5)c4)cnc3N)cn2)CC1 [Example A85, (S)-3-(3-(5-amino-6-((1-(1-methylpiperidin-4-yl)-1H-pyrazol-4-yl)oxy)pyrazin-2-yl)-5-(2-(hydroxymethyl)pyrrolidin-1-yl)phenyl)oxetan-3-ol]
7.40 | 6.89 | Cc1cc(-c2cnc(N)c(Oc3cnn(C4CCN(C)CC4)c3)n2)cc(C2(O)COC2)c1C1=CCOCC1 [Example A86, 3-(5-(5-amino-6-((1-(1-methylpiperidin-4-yl)-1H-pyrazol-4-yl)oxy)pyrazin-2-yl)-2-(3,6-dihydro-2H-pyran-4-yl)-3-methylphenyl)oxetan-3-ol]
7.25 | 7.05 | Cc1cc(-c2cnc(N)c(Oc3cnn(C4CCN(C)CC4)c3)n2)cc(C2(O)COC2)c1C1OCCO1 [Example A87, 3-(5-(5-amino-6-((1-(1-methylpiperidin-4-yl)-1H-pyrazol-4-yl)oxy)pyrazin-2-yl)-2-(1,3-dioxolan-2-yl)-3-methylphenyl)oxetan-3-ol]
7.47 | 7.07 | Cc1cc(-c2cnc(N)c(Oc3cnn(C4CCN(C)CC4)c3)n2)cc(C2(O)CCCOC2)c1 (stereo not drawn) [Example A88, 3-(3-(5-amino-6-((1-(1-methylpiperidin-4-yl)-1H-pyrazol-4-yl)oxy)pyrazin-2-yl)-5-methylphenyl)tetrahydro-2H-pyran-3-ol]
7.96 | 7.19 | C[C@@H]1COCCN1c1cc(-c2cnc(N)c(Oc3cnn(C4CCN(C)CC4)c3)n2)cc(C2(O)CCCOC2)c1 (stereo partly drawn) [Example A89, 3-(3-(5-amino-6-((1-(1-methylpiperidin-4-yl)-1H-pyrazol-4-yl)oxy)pyrazin-2-yl)-5-((R)-3-methylmorpholino)phenyl)tetrahydro-2H-pyran-3-ol]
7.96 | 6.70 | CN1CCC(n2cc(Oc3nc(-c4cc(N5CCCC5=O)cc(C5(O)COC5)c4)cnc3N)cn2)CC1 [Example A91, 1-(3-(5-amino-6-((1-(1-methylpiperidin-4-yl)-1H-pyrazol-4-yl)oxy)pyrazin-2-yl)-5-(3-hydroxyoxetan-3-yl)phenyl)pyrrolidin-2-one]
8.15 | 6.81 | Cc1cc(-c2cnc(N)c(Oc3cnn(C4CCN(C)CC4)c3)n2)cc(C2(O)CCOC2)c1N1CC2(CCOCC2)C1 (stereo not drawn) [Example A92, 3-(5-(5-amino-6-((1-(1-methylpiperidin-4-yl)-1H-pyrazol-4-yl)oxy)pyrazin-2-yl)-3-methyl-2-(7-oxa-2-azaspiro[3.5]nonan-2-yl)phenyl)tetrahydrofuran-3-ol]
7.43 | 6.79 | Cc1cc(-c2cnc(N)c(Oc3cnn(C4CCN(C)CC4)c3)n2)cc(C2(O)CCOC2)c1F (stereo not drawn) [Example A93, 3-(5-(5-amino-6-((1-(1-methylpiperidin-4-yl)-1H-pyrazol-4-yl)oxy)pyrazin-2-yl)-2-fluoro-3-methylphenyl)tetrahydrofuran-3-ol]
7.82 | 6.92 | CC1OCCC1(O)c1cc(-c2cnc(N)c(Oc3cnn(C4CCN(C)CC4)c3)n2)cc(N2CCOC[C@H]2C)c1 (stereo partly drawn) [Example A94, 3-(3-(5-amino-6-((1-(1-methylpiperidin-4-yl)-1H-pyrazol-4-yl)oxy)pyrazin-2-yl)-5-((R)-3-methylmorpholino)phenyl)-2-methyltetrahydrofuran-3-ol]
7.44 | 6.93 | Cc1cc(-c2cnc(N)c(Oc3cnn(C4CCN(C)CC4)c3)n2)cc(C2(O)CCOC2)c1N1CCOCC1 (stereo not drawn) [Example A96, 3-(5-(5-amino-6-((1-(1-methylpiperidin-4-yl)-1H-pyrazol-4-yl)oxy)pyrazin-2-yl)-3-methyl-2-morpholinophenyl)tetrahydrofuran-3-ol]
7.74 | 7.11 | Cc1cc(-c2cnc(N)c(Oc3cnn(C4CCN(C)CC4)c3)n2)cc([C@@]2(O)CCOC2)c1N1CCOCC1 [Example A97A, (S)-3-(5-(5-amino-6-((1-(1-methylpiperidin-4-yl)-1H-pyrazol-4-yl)oxy)pyrazin-2-yl)-3-methyl-2-morpholinophenyl)tetrahydrofuran-3-ol]
7.52 | 6.81 | Cc1cc(-c2cnc(N)c(Oc3cnn(C4CCN(C)CC4)c3)n2)cc([C@]2(O)CCOC2)c1N1CCOCC1 [Example A97B, (R)-3-(5-(5-amino-6-((1-(1-methylpiperidin-4-yl)-1H-pyrazol-4-yl)oxy)pyrazin-2-yl)-3-methyl-2-morpholinophenyl)tetrahydrofuran-3-ol]
8.04 | 7.14 | CN1CCC(n2cc(Oc3nc(-c4cc(N5CCCOCC5)cc(C5(O)CCOC5)c4)cnc3N)cn2)CC1 (stereo not drawn) [Example A98, 3-(3-(5-amino-6-((1-(1-methylpiperidin-4-yl)-1H-pyrazol-4-yl)oxy)pyrazin-2-yl)-5-(1,4-oxazepan-4-yl)phenyl)tetrahydrofuran-3-ol]
7.59 | 6.74 | CCN(CC)c1cc(-c2cnc(N)c(Oc3cnn(C4CCN(C)CC4)c3)n2)cc(CNC)n1 [Example B1, 5-(2-(diethylamino)-6-((methylamino)methyl)pyridin-4-yl)-3-((1-(1-methylpiperidin-4-yl)-1H-pyrazol-4-yl)oxy)pyrazin-2-amine]
7.92 | 6.92 | CNCc1cc(-c2cnc(N)c(Oc3cnn(C4CCN(C)CC4)c3)n2)cc(N2CCC[C@H]2C)n1 [Example B2, (R)-5-(2-((methylamino)methyl)-6-(2-methylpyrrolidin-1-yl)pyridin-4-yl)-3-((1-(1-methylpiperidin-4-yl)-1H-pyrazol-4-yl)oxy)pyrazin-2-amine]
7.96 | 6.64 | C[C@@H]1COCCN1c1cc(-c2cnc(N)c(Oc3cnn(C4CCN(C)CC4)c3)n2)cc(C(C)(C)O)n1 [Example B3, (R)-2-(4-(5-amino-6-((1-(1-methylpiperidin-4-yl)-1H-pyrazol-4-yl)oxy)pyrazin-2-yl)-6-(3-methylmorpholino)pyridin-2-yl)propan-2-ol]
7.51 | 6.99 | C[C@@H]1COCCN1c1cc(-c2cnc(N)c(Oc3cnn(C4CCN(C)CC4)c3)n2)cc(C2(O)COC2)n1 [Example B4, (R)-3-(4-(5-amino-6-(1-(1-methylpiperidin-4-yl)-1H-pyrazol-4-yloxy)pyrazin-2-yl)-6-(3-methylmorpholino)pyridin-2-yl)oxetan-3-ol]
